In patent EP3925949A1, “AZIDO COMPOUNDS AND METHOD FOR MONITORING ACID CERAMIDASE ACTIVITY IN INTACT CELLS USING THEM” (Consejo Superior de Investigaciones Científicas (CSIC), priority 2020, dated 2021):

Columns and labels:
Type in all cases: cell-based
[1] = molecular target: T1, acid ceramidase (AC) (Homo sapiens, UniProt Q13510); test: AC activity by flow cytometry with RBM5-177/CO-1 in intact cells; set-up: expressed in transfected cells; host or cells: A375/+Dox and FD/AC (overexpressing AC); A375/-Dox and A549 (endogenous AC); conditions: A375/+Dox, 4 h, RBM5-177 as substrate, labelling with CO-1 (1 µM, 10 min)
T1 sequence (Q13510 143-395 limits assumed): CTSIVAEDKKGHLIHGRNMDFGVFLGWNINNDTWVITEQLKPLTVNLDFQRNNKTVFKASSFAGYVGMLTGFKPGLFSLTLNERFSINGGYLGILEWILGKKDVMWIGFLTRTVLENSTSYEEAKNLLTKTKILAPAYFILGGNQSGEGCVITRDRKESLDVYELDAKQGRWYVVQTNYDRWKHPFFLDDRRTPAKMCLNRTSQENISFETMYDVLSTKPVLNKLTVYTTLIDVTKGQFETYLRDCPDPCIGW
T1 sequence (Q13510 22-142 limits assumed): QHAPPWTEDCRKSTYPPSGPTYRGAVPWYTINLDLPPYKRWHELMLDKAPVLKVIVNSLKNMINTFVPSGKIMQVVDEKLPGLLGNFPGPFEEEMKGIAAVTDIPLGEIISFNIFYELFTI
Procedure: Cells were seeded at 1 × 10^5 cells/mL into 6 well plates (1 mL/well) and were allowed to adhere for 24 h. Medium was replaced with fresh medium containing Soclac (5 µM final concentration) and incubated for 1 h. After this time, the medium was replaced with RBM5-177, RBM5-019 or RBM2-37 (5 µM final concentration) +/- Soclac and incubated for 20 min. In the experiments with DM120, the compound, Soclac and RBM5-177 were incubated together for 4 h. After probes incubation, the medium was replaced with fresh medium containing CO-1 (1 µM final concentration), and cells were incubated for 10 min. Then cells were washed 3 times with DMEM for 5 min at 37 °C, and finally washed with 400 µL PBS and harvested with 400 µL Trypsin-EDTA and 600 µL of medium. Pellets were resuspended with 200 µL of PBS and stained cells were analyzed by using a Guava EasyCyte™ flow cytometer (Merck Millipore, Billerica, MA) measuring green fluorescence (488/525 nm). Data analysis was performed using the Multicycle AV program (Phoenix Flow Systems, San Diego, CA).

[2] = tested on: A375 cells; test: Cell viability (MTT method); conditions: A375/+Dox, 4 h, whole range of concentrations examined
Procedure: A375 cells were seeded at 2.5 × 10^4 cells/mL in 96-well plates (0.1 ml/well) and grown for 24 h. Overexpression of AC was induced with doxycycline at 1 µg/mL for 24 h. Cell viability was examined in triplicate samples by MTT method after treatment with DM120 at different concentrations or with the corresponding percentage of vehicle for 4 h.

[3] = molecular target: T1, acid ceramidase (AC); test: AC activity in intact cells by UPLC-HRMS quantification of RBM5-019 and reacylated products; set-up: expressed in transfected cells; host or cells: A375/+Dox (overexpressing AC); conditions: A375/+Dox, 4 h, decrease in RBM5-19 amounts by UPLC-HRMS
Procedure: Cells were seeded at 5 × 10^5 cells/mL into 6 well plates (1 mL/well) and were allowed to adhere for 24 h. Medium was replaced with fresh medium containing RBM5-177, RBM5-019 or RBM2-37 (5 μM final concentration). After 30 min, medium was removed; cells were washed with 400 μL PBS and harvested with 400 μL Trypsin-EDTA and 600 μL of medium. NC recombinant enzyme, lysates from A375-AC overexpressing cells, MEF5 or microsomes from HeLa T-Rex ACER1-TET-ON and HeLa T-Rex ACER2-TET-ON cells stably overexpress ACER1 orACER2 respectively were incubated with RBM5-177 or RBM5-019 (10 μM final concentration) for 3 h in the corresponding ceramidase activity buffer. Cell pellets were resuspended with 100 μL of H2O and mixed with 750 μL of methanol: chloroform, 2:1. Samples were heated at 48°C overnight and next day, 75 μL of 1 M KOH in methanol were added, followed by 2 h incubation at 37°C. Afterwards, the saponification was neutralised with 75 μL of 1 M acetic acid and solvent was removed using a […] (Thermo Scientific). Sphingolipid extracts, fortified with internal standards (N-dodecanoylsphingosine, N-dodecanoylglucosylsphingosine, N-dodecanoylsphingosylphosphorylcoline and C17-sphinganine 0.2 nmol each) were solubilised in 150 μL of methanol. Samples were then centrifuged at 9,300 g for 3 min and 130 μL of the supernatant were injected to a Waters Aquity UPLC system connected to a Waters LCT Premier Orthogonal Accelerated Time of Flight Mass Spectrometer (Waters,Milford, MA, USA) operated in positive electrospray ionisation mode. Full scan spectra from 50 to 1500 Da were acquired and individual spectra were summed to produce data points each 0.2 s. Mass accuracy and reproducibility were maintained by using an independent reference spray by the LockSpray interference. The analytical column was a 100 mm x2.1 mm i.d., 1.7 μm C8 Acquity UPLC BEH (Waters). The two mobile phases were phase A: methanol/water/formic acid (74/25/1 v/v/v); phase B: methanol/formic acid (99/1 v/v), both also contained 5 mM ammonium formate. […]

[4] = molecular target: T1, acid ceramidase (AC); test: Fluorogenic AC activity in intact cells (substrate RBM14C12); set-up: expressed in transfected cells; host or cells: A375/+Dox (overexpressing AC); conditions: AC overexpressing A375 cells (A375/+Dox), 4 h, substrate RBM14C12 40 µM
Procedure: To determine AC activity in intact cells, A375 cells were seeded at 2.5 × 10^4 cells/mL in 96-well plates (0.1 ml/well) and grown for 24 h. Overexpression of AC was induced with doxycycline at 1 µg/mL for 24 h. Medium was replaced by DM120 at different concentrations and substrate RBM14C12 at a final concentration of 40 µM in DMEM. The plate was incubated for 4 h at 37°C in 5% CO2. The reaction was stopped with 25 µL of MeOH and then 100 µL of NalO4 (2.5 mg/mL in glycine-NaOH buffer, pH 10.6) was added. After incubation at 37°C for 1 h, 100 µL of 0.1 M glycine-NaOH buffer (pH 10.6) was added and fluorescence was measured spectrophotometrically at excitation and emission wavelengths of 355 and 460 nm, respectively. The same reaction mixture without cells was used as blank.

[5] = tested on: CerS; test: CerS activity-dependence of labelling with RBM5-177 (confocal microscopy and UPLC-HRMS); conditions: A375/+Dox cells, FB1 100 µM, 24 h
Procedure: Cells were seeded at 5 × 10^5 cells/mL into 6 well plates (1 mL/well) and were allowed to adhere for 24 h. Medium was replaced with fresh medium containing RBM5-177, RBM5-019 or RBM2-37 (5 µM final concentration). After 30 min, medium was removed; cells were washed with 400 µL PBS and harvested with 400 µL Trypsin-EDTA and 600 µL of medium. NC recombinant enzyme, lysates from A375-AC overexpressing cells, MEF5 or microsomes from HeLa T-Rex ACER1-TET-ON and HeLa T-Rex ACER2-TET-ON cells stably overexpress ACER1 orACER2 respectively were incubated with RBM5-177 or RBM5-019 (10 µM final concentration) for 3 h in the corresponding ceramidase activity buffer. Cell pellets were resuspended with 100 µL of H2O and mixed with 750 µL of methanol: chloroform, 2:1. Samples were heated at 48°C overnight and next day, 75 µL of 1 M KOH in methanol were added, followed by 2 h incubation at 37°C. Afterwards, the saponification was neutralised with 75 µL of 1 M acetic acid and solvent was removed using a Speed Vac Savant SPD131 DDA (Thermo Scientific). […]
Cells were seeded at 1 × 10^5 cells/mL on glass-bottom plates and allowed to adhere for 24 h. […] Co-localization coefficients were measured using the JaCoP plugin (S. Bolte et al. J. Microsc. 2006, 224, 213-232) on the different stacks of images (at least n=4) with each stack containing 3-10 cells.

[6] = molecular target: T1, acid ceramidase (AC); test: AC activity-dependence of labelling (fluorescence confocal microscopy); set-up: expressed in transfected cells; host or cells: FD/AC (overexpressing AC); conditions: A375/+Dox and A375/-Dox, with or without SOCLAC (Fig. 7A)
Procedure: Cells were seeded at 1 × 10^5 cells/mL on glass-bottom plates and allowed to adhere for 24 h. For golgi staining, cells were incubated with 40 µL/well of CellLight Golgi-RFP BacMam 2.0 for 24 h. […] After this time, the medium was replaced with fresh medium containing CO-1 (1 µM final concentration), and cells were incubated for 10 min. Then cells were washed 3 times with DMEM for 5 min at 37 °C, 75 nM LysoTracker Red DND-99 or 75 nM Mitotracker in phenol red-free DMEM was added to stain lysosomes or mitochondria, and cells were kept in the incubator for microscope analysis. Staining was viewed with a Zeiss LSM 880 confocal microscope or Leica TCS SP8-Hyvolution. Image analysis was performed using Fiji software.^[7] To measure the Manders's and Pearson's coefficients a threshold including organelles and discarding the background was set. Co-localization coefficients were measured using the JaCoP plugin (S. Bolte et al. J. Microsc. 2006, 224, 213-232) on the different stacks of images (at least n=4) with each stack containing 3-10 cells.

With `CCCCCCCCCCCCC/C=C/[C@H](CO)NC(=O)C(C)(C)C` [DM120] the IC50 [1] was 27 µM, the toxicity [2] was “without toxicity in the whole range of concentrations examined” and the IC50 [3] was 18 µM. It also gave an IC50 [4] of 9.4 µM.
In the case of `CCCC[C@@H](C)[C@@H](OC(=O)C[C@@H](CC(=O)O)C(=O)O)[C@H](C[C@@H](C)C[C@H](O)CCCC[C@@H](O)C[C@H](O)[C@H](C)N)OC(=O)C[C@@H](CC(=O)O)C(=O)O` [FB1, Fumonisin B1], the “effect on transacylation (N-acylderivatives)” value ([5]; UPLC-HRMS (Fig. 4B)) is reported as “transacylation was blocked” and the “effect on extralysosomal staining” value ([5]; confocal microscopy (Fig. 4A)) is reported as “prevented”.
For `C[C@H](N)[C@H](O)CCCCCCCCCCCCN=[N+]=[N-]` [RBM5-019, (2S,3R)-2-Amino-15-azidopentadecan-3-ol], the “sensitivity of lysosome labelling to AC activity” value [6] was “not sensitive to AC overexpression or blockade”.
